Earlier results on one compound are cited in patent US20130079371A1, “Bioadhesive Compositions of Local Anaesthetics” (PHARMANEST AB, priority 2010, published 2013).

Regarding `CCCCN1CCCC[C@H]1C(=O)Nc1c(C)cccc1C` [levobupivacaine], the pKa (in general, the negative logarithm of the acid dissociation constant) is on record as 8.1.
